Earlier results in patent US20060046268A1, “Diagnosis of anemia and optimizing treatment for heart repair” (Australian Stem Cell Centre Ltd., priority 2004, published 2006).

Test system: renal transplant patients
Conditions: reversed upon ceasing administration of the drug, Vlahakos et al., Am J Kidney Dis 17:199-205

CCOC(=O)[C@H](CCc1ccccc1)N[C@@H](C)C(=O)N1CCC[C@H]1C(=O)O [Enalapril]
anemia (impact on function of the hematopoietic system): reversible anemia
